Laboratory results reported in US11008314B2, “Compounds and methods for modulating interleukin-2-inducible t-cell kinase” (CORVUS PHARMACEUTICALS, INC., priority 2016, dated 2021).

Experiments:
Type in all cases: biochemical
ITK = ITK (Homo sapiens (Human), UniProt Q08881); assay: IC50 against ITK
BTK = BTK (Homo sapiens (Human), UniProt Q06187); assay: IC50 against BTK
JAK3 = JAK3 (Homo sapiens (Human), UniProt P52333); assay: IC50 against JAK3
TXK = TXK (Homo sapiens (Human), UniProt P42681); assay: IC50 against TXK; conditions: for TXK/ITK: ratio of TXK IC50 to ITK IC50
Chain of TXK (P42681 whole entry, species assumed): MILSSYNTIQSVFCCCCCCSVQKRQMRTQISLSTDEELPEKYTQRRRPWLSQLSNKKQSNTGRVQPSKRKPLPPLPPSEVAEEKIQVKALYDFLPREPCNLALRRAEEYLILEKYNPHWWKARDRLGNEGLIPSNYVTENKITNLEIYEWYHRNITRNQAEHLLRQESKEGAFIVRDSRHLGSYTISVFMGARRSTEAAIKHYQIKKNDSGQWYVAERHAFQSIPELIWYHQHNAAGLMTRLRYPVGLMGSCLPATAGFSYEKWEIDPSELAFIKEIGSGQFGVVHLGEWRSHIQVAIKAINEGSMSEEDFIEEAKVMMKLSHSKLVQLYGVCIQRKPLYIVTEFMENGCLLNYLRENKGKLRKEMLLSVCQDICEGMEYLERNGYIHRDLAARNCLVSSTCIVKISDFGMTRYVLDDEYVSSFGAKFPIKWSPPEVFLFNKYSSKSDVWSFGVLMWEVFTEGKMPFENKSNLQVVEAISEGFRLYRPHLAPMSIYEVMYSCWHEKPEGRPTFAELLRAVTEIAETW

Chain of JAK3 (P52333 whole entry, species assumed): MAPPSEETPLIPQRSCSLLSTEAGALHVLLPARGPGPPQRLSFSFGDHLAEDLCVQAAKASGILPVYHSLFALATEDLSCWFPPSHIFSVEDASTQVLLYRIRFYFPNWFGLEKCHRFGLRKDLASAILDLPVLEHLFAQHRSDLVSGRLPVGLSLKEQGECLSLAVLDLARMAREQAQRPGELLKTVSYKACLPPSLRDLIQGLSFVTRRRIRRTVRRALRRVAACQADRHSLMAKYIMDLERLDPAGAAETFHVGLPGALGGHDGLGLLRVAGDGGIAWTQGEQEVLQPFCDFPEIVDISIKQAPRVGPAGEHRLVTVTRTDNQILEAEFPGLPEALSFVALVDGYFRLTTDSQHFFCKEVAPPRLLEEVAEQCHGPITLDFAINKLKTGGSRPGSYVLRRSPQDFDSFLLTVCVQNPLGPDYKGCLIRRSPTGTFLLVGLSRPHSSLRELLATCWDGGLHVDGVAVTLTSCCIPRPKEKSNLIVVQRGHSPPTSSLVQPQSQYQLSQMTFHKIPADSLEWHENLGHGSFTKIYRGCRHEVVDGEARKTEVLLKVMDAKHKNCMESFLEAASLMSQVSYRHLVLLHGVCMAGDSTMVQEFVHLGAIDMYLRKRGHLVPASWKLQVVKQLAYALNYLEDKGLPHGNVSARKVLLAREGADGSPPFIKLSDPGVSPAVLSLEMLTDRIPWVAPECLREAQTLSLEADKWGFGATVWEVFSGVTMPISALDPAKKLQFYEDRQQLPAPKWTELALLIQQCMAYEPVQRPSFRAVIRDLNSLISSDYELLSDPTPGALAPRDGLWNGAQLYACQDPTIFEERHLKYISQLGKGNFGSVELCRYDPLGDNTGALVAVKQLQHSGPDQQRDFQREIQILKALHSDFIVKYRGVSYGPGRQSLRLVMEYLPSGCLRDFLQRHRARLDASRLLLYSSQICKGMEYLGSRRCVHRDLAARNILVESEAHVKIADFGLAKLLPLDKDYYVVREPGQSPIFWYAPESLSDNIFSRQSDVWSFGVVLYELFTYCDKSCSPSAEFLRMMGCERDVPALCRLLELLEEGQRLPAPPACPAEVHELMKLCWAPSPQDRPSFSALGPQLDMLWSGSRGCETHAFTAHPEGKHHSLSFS
Chain of ITK (Q08881 whole entry): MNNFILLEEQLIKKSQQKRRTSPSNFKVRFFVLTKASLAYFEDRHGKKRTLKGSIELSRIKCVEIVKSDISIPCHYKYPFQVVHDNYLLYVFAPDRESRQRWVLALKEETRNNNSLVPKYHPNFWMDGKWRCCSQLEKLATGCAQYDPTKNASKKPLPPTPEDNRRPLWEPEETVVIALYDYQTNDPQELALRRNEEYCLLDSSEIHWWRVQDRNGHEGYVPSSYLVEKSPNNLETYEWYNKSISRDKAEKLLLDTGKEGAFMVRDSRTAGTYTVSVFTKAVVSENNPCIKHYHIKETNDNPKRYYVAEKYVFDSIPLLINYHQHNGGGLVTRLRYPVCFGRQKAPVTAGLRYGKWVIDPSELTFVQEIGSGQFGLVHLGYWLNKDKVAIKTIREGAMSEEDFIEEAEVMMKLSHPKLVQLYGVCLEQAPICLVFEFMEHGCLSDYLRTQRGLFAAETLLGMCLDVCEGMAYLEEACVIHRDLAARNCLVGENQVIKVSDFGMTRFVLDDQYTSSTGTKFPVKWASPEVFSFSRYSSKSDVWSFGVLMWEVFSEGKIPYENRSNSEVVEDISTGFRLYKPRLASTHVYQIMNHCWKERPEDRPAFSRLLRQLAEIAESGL
Chain of BTK (Q06187 whole entry, species assumed): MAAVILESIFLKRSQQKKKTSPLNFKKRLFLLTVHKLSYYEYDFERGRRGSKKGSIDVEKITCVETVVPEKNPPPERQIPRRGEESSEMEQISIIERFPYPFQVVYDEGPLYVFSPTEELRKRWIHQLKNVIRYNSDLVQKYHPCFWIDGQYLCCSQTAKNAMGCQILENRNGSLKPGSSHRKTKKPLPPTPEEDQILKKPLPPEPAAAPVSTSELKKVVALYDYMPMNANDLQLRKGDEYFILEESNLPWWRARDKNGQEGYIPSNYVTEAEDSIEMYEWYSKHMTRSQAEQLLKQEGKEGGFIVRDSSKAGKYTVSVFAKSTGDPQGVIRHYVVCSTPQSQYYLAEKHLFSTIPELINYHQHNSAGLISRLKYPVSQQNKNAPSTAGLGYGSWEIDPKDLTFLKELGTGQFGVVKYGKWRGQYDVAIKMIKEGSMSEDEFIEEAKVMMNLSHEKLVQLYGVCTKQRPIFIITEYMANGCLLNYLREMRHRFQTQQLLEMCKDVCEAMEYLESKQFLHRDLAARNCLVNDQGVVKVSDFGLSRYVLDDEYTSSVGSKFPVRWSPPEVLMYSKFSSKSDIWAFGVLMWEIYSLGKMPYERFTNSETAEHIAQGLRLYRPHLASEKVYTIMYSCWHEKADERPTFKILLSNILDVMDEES

| IC50 (ITK) [nM] | IC50 (BTK) [nM] | IC50 (JAK3) [nM] | IC50 (TXK) [nM] | TXK/ITK (TXK) | Structure (SMILES) |
| --- | --- | --- | --- | --- | --- |
| 10 to 100 | 100 to 1000 | 1000 to 10000 | 10 to 100 | 3.101 | C=CC(=O)N1CC[C@H](N(C)C(=O)c2cc(Sc3cnc(NC(C)=O)s3)c(C)cc2OC)C1 [Compound 30] |
| 10 to 100 | 1000 to 10000 | 1000 to 10000 | 100 to 1000 | 19.291 | C=CC(=O)N1CCN(C(=O)c2cc(Sc3cnc(NC(=O)C4CCCC4)s3)c(C)cc2OC)CC1 [Compound 31] |
| < 10 | 100 to 1000 | 1000 to 10000 | 100 to 1000 | 81.114 | C=CC(=O)N1CCN(C(=O)c2cc(Sc3cnc(NC(=O)c4cccc(CN(C)C)c4)s3)c(C)cc2OC)C[C@H]1C [Compound 32] |
| < 10 | 10 to 100 | 100 to 1000 | 10 to 100 | 33.121 | C=CC(=O)N1CCN(C(=O)c2cc(Sc3cnc(NC(=O)c4ccc(CN(C)C)cc4)s3)c(C)cc2OC)CC1 [Compound 34] |
| 100 to 1000 | ≥ 10000 | ≥ 10000 | ≥ 10000 | 48.433 | C=CC(=O)N1CCCN(C(=O)c2cc(Sc3cnc(NC(=O)CN(C)C)s3)c(C)cc2OC)CC1 [Compound 35] |
| 10 to 100 | 1000 to 10000 | ≥ 10000 | 1000 to 10000 | 72.34 | C=CC(=O)N1CCCN(C(=O)c2cc(Sc3cnc(NC(=O)C(C)C)s3)c(C)cc2OC)CC1 [Compound 36] |
| 100 to 1000 | ≥ 10000 | ≥ 10000 | ≥ 10000 | 46.119 | C=CC(=O)N1CCCN(C(=O)c2cc(Sc3cnc(NC(=O)C4CCN(C)CC4)s3)c(C)cc2OC)CC1 [Compound 37] |
| 10 to 100 | 1000 to 10000 | ≥ 10000 | 1000 to 10000 | 28.189 | CC#CC(=O)N1CCCN(C(=O)c2cc(Sc3cnc(NC(=O)c4cccc(CN(C)C)c4)s3)c(C)cc2OC)CC1 [Compound 38] |
| 100 to 1000 | ≥ 10000 | ≥ 10000 | 1000 to 10000 | 1.5 | C=C(C)C(=O)N1CCCN(C(=O)c2cc(Sc3cnc(NC(=O)c4cccc(CN(C)C)c4)s3)c(C)cc2OC)CC1 [Compound 39] |
| < 10 | 100 to 1000 | 100 to 1000 | 10 to 100 | 14.491 | C=CC(=O)N1CCN(C(=O)c2cc(Sc3cnc(NC(=O)c4ccc(N5CCN(C(=O)OC(C)(C)C)CC5)cc4)s3)c(C)cc2OC)CC1 [Compound 40] |
| < 10 | 10 to 100 | 10 to 100 | 10 to 100 | 21.91 | C=CC(=O)N1CCN(C(=O)c2cc(Sc3cnc(NC(=O)c4ccc(N5CCN(C(=O)CCOCCOCCOCCOCCNC(=O)CCCCC6SCC7NC(=O)NC76)CC5)cc4)s3)c(C)cc2OC)CC1 (centres unmarked) [Compound 41] |
| < 10 | 1000 to 10000 | 1000 to 10000 | 10 to 100 | 10.152 | C=CC(=O)N1CCN(C(=O)c2cc(Sc3cnc(NC(=O)C4CC4)s3)c(C)cc2OC)C[C@H]1CC [Compound 42] |
| < 10 | 10 to 100 | 10 to 100 | < 10 | 3.4821 | C=CC(=O)N1CCN(C(=O)c2cc(Sc3cnc(NC(=O)C4CC4)s3)c(C)cc2OC)C[C@H]1C#N [Compound 43] |
| < 10 | 10 to 100 | 10 to 100 | < 10 | 4.1551 | C=CC(=O)N1CC2(CCN(C(=O)c3cc(Sc4cnc(NC(=O)C5CC5)s4)c(C)cc3OC)C2)C1 [Compound 45] |
| < 10 | 10 to 100 | 100 to 1000 | < 10 | 3.4072 | C=CC(=O)N1CCC2(C1)CN(C(=O)c1cc(Sc3cnc(NC(=O)C4CC4)s3)c(C)cc1OC)C2 [Compound 46] |
| 10 to 100 | ≥ 10000 | ≥ 10000 | ≥ 10000 | 181.42 | C=CC(=O)N1CCCN(C(=O)c2cc(Sc3cnc(NC(=O)CC)s3)c(C)cc2OC)C[C@H]1C [Compound 47] |
